Laboratory results: patent US9708336B2, “Metallo-beta-lactamase inhibitors” (priority 2014, dated 2017)
Like-named read-outs stand apart in the source and are kept apart here.

Columns and labels:
[1] = tested on: Klebsiella pneumoniae expressing VIM-1 (IHMA599644); assay: Antibiotic potentiation activity: synergistic concentration (MITC95) with imipenem, OD600 growth; assay type: cell-based; conditions: concentration giving 95% inhibition of bacterial growth
Outline: (§1)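 Bacteria were grown overnight on agar at 35 °C, diluted 1:100 from saline into 1.1× CAMHB, then given compound with or without imipenem (4 μg/ml in assay, optionally 1 μg/ml). Endpoint: absorbance at 22–24 h.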

[2] = tested on: Serratia marcescens expressing IMP-1 (CL5741); assay: as above; assay type: cell-based; conditions: concentration giving 95% inhibition of bacterial growth
Outline: as §1

[3] = tested on: Escherichia coli expressing NDM-1 (CLB30005); assay: as above; assay type: cell-based; conditions: concentration giving 95% inhibition of bacterial growth
Outline: as §1

[4] = target: VIM-1 (Pseudomonas aeruginosa (strain ATCC 15692 / DSM 22644 / CIP 104116 / JCM 14847 / LMG 12228 / 1C / PRS 101 / PAO1), UniProt A0A0F7KYQ8); assay: Enzyme activity: determination of IC50, fluorescence assay with CCF2-FA substrate (VIM-1); assay type: biochemical
[5] = target: NDM-1 (Klebsiella pneumoniae, UniProt C7C422); assay: biochemical; assay type: biochemical
NDM-1, sequence (C7C422 whole entry, looked up, species assumed): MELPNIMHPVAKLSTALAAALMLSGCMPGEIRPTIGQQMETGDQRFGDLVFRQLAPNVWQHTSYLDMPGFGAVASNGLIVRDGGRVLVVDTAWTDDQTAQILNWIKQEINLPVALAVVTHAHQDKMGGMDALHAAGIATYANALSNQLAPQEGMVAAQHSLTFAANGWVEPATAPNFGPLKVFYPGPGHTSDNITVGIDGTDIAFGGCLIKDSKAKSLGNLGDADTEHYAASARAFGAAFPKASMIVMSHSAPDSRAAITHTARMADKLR

[6] = target: IMP-1 (Serratia marcescens, UniProt P52699); assay: biochemical; assay type: biochemical
IMP-1, sequence (P52699 whole entry, looked up): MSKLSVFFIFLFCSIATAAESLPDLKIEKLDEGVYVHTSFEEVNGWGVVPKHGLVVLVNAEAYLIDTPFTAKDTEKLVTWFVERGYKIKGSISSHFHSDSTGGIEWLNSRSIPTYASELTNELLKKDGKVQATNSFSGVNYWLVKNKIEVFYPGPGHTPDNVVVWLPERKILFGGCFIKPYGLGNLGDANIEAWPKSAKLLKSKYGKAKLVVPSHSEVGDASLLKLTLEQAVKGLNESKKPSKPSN

[7] = fluorescence assay with CCF2-FA substrate, read-out: VIM-1 IC50
[8] = fluorescence assay with CCF2-FA substrate, read-out: NDM-1 IC50
[9] = fluorescence assay with CCF2-FA substrate, read-out: IMP-1 IC50
[10] = VIM-1 IC50, fluorescence assay with CCF2-FA substrate

| SMILES | Klebsiella pneumoniae expressing VIM-1 (IHMA 599644) MITC95 [1] | Serratia marcescens expressing IMP-1 (CL5741) MITC95 [2] | Escherichia coli expressing NDM-1 (CLB 30005) MITC95 [3] | IC50 [4, 7] | IC50 [5, 8] | IC50 [6, 9] | IC50 [5] | IC50 [6] | IC50 [4, 10] |
| --- | --- | --- | --- | --- | --- | --- | --- | --- | --- |
| CC(c1ccc(-c2cccc(S(N)(=O)=O)c2-c2nn[nH]n2)cc1)N1CCOCC1 (stereo not drawn) [Example 4, 4′-(1-morpholin-4-ylethyl)-2-(2H-tetrazol-5-yl)biphenyl-3-sulfonamide] | >200 µM | 6.25 µM | 0.7813 µM | 0.196 µM | 0.00284 µM | 0.0113 µM | – | – | – |
| NS(=O)(=O)c1cccc(-c2ccc(-n3nccn3)cc2)c1-c1nn[nH]n1 [Example 5, 2-(2H-tetrazol-5-yl)-4′-(2H-1,2,3-triazol-2-yl)biphenyl-3-sulfonamide] | >200 µM | 12.5 µM | 0.7813 µM | 0.0565 µM | 0.00344 µM | 0.0723 µM | – | – | – |
| CC(CO)Oc1ccc(-c2cccc(S(N)(=O)=O)c2-c2nn[nH]n2)cc1 (stereo not drawn) [Example 6, 4′-(2-hydroxy-1-methylethoxy)-2-(2H-tetrazol-5-yl)biphenyl-3-sulfonamide] | >200 µM | 50 µM | 1.563 µM | 0.0423 µM | – | – | 0.00196 µM | 0.0396 µM | – |
| CC(C)(C)OC(=O)N1CCN(c2ccc(-c3cccc(S(N)(=O)=O)c3-c3nn[nH]n3)cc2)CC1 [Example 7, tert-butyl 4-[3′-sulfamoyl-2′-(2H-tetrazol-5-yl)biphenyl-4-yl]piperazine-1-carboxylate] | >200 µM | 12.5 µM | 6.25 µM | 0.486 µM | 0.00369 µM | – | – | 0.0294 µM | – |
| COc1ccc(-c2cccc(S(N)(=O)=O)c2-c2nn[nH]n2)cc1 [Example 8, 4′-methoxy-2-(2H-tetrazol-5-yl)biphenyl-3-sulfonamide] | 200 µM | 3.125 µM | 0.3906 µM | – | 0.00399 µM | 0.0782 µM | – | – | 0.0798 µM |
| CCN(CC)C(=O)c1ccc(-c2cccc(S(N)(=O)=O)c2-c2nn[nH]n2)cc1 [Example 9, N,N-diethyl-3′-sulfamoyl-2′-(2H-tetrazol-5-yl)biphenyl-4-carboxamide] | >200 µM | 12.5 µM | 3.125 µM | 0.277 µM | 0.00148 µM | 0.0172 µM | – | – | – |
| NS(=O)(=O)c1cccc(-c2ccc(C(=O)N3CCOCC3)cc2)c1-c1nn[nH]n1 [Example 10, 4′-(morpholin-4-ylcarbonyl)-2-(2H-tetrazol-5-yl)biphenyl-3-sulfonamide] | >200 µM | 6.25 µM | 3.125 µM | 0.986 µM | 0.0037 µM | 0.0626 µM | – | – | – |
| NS(=O)(=O)c1cccc(-c2ccc(C(=O)NC3CC3)cc2)c1-c1nn[nH]n1 [Example 11, N-cyclopropyl-3′-sulfamoyl-2′-(2H-tetrazol-5-yl)biphenyl-4-carboxamide] | >200 µM | 12.5 µM | 1.563 µM | – | 0.00642 µM | 0.109 µM | – | – | 0.466 µM |
| NS(=O)(=O)c1cccc(-c2ccc(N3CCOCC3)cc2)c1-c1nn[nH]n1 [Example 12] | 200 µM | 6.25 µM | 3.125 µM | 0.0957 µM | 0.00347 µM | 0.0418 µM | – | – | – |
| CNC(=O)c1ccc(-c2cccc(S(N)(=O)=O)c2-c2nn[nH]n2)cc1 [Example 13, N-methyl-3′-sulfamoyl-2′-(2H-tetrazol-5-yl)biphenyl-4-carboxamide] | 200 µM | 200 µM | 1.563 µM | 0.226 µM | 0.00547 µM | 0.173 µM | – | – | – |
| NS(=O)(=O)c1cccc(-c2ccccc2)c1-c1nn[nH]n1 [Example 14, 2-(2H-tetrazol-5-yl)biphenyl-3-sulfonamide] | 100 µM | 6.25 µM | 0.3906 µM | 0.108 µM | 0.00519 µM | 0.172 µM | – | – | – |
| NC(=O)c1ccc(-c2cccc(S(N)(=O)=O)c2-c2nn[nH]n2)cc1 [Example 15, 3′-sulfamoyl-2′-(2H-tetrazol-5-yl)biphenyl-4-carboxamide] | 18.75 µM | 15.63 µM | 0.3906 µM | 0.0623 µM | 0.00596 µM | 0.134 µM | – | – | – |
| CS(=O)(=O)c1ccc(-c2cccc(S(N)(=O)=O)c2-c2nn[nH]n2)cc1 [Example 16, 4′-(methylsulfonyl)-2-(2H-tetrazol-5-yl)biphenyl-3-sulfonamide] | 75 µM | 25 µM | 1.172 µM | – | 0.0105 µM | 0.0855 µM | – | – | 0.0671 µM |
| NS(=O)(=O)c1cccc(-c2ccc(C(=O)NCCO)cc2)c1-c1nn[nH]n1 [Example 17, N-(2-hydroxyethyl)-3′-sulfamoyl-2′-(2H-tetrazol-5-yl)biphenyl-4-carboxamide] | 100 µM | 53.13 µM | 0.7813 µM | 0.209 µM | 0.00857 µM | 0.0875 µM | – | – | – |
| NS(=O)(=O)c1cccc(-c2ccc(N3CCCCC3)cc2)c1-c1nn[nH]n1 [Example 18, 4′-piperidin-1-yl-2-(2H-tetrazol-5-yl)biphenyl-3-sulfonamide] | >200 µM | 103.1 µM | 3.906 µM | – | 0.00204 µM | 0.0234 µM | – | – | 0.326 µM |
| NS(=O)(=O)c1cccc(-c2cccnc2)c1-c1nn[nH]n1 [Example 19, 3-pyridin-3-yl-2-(2H-tetrazol-5-yl)benzenesulfonamide] | 50 µM | 50 µM | 0.3906 µM | 0.269 µM | 0.0245 µM | 1.78 µM | – | – | – |
| NS(=O)(=O)c1cccc(-c2cccs2)c1-c1nn[nH]n1 [Example 20, 2-(2H-tetrazol-5-yl)-3-thiophen-2-ylbenzenesulfonamide] | 166.7 µM | 18.75 µM | 1.823 µM | 0.362 µM | 0.0204 µM | 0.331 µM | – | – | – |
| NS(=O)(=O)c1cccc(-c2cnc(C3(O)CCC3)s2)c1-c1nn[nH]n1 [Example 21, 3-[2-(1-hydroxycyclobutyl)-1,3-thiazol-5-yl]-2-(2H-tetrazol-5-yl)benzenesulfonamide] | >200 µM | 100 µM | 12.89 µM | 0.564 µM | 0.0638 µM | 2.27 µM | – | – | – |
